In patent US11202836B2, “PSMA targeted conjugate compounds and uses thereof” (CASE WESTERN RESERVE UNIVERSITY, priority 2018, dated 2021):
*1 amine or outer side, *2 acyl side, *3 side chain or, on linkers, in order; H or OH if unused. Where a SMILES comes first, the peptide text is derived from it. Bridges are numbered along the chain shown (N, C = ends). Roman numbers before positions name the chains, in order. [ ]: non-standard residue; d: D form. The star is where a group is joined. Hexanoyl(6-succinimido-3yl) = O=C1CC([*:1])C(=O)N1CCCCCC(=O)[*:2]; Dolaproine = CO[C@@H]([C@@H]1CCCN1)[C@@H](C)C(=O)O; Dil = CC[C@H](C)[C@H](NC)[C@@H](CC(=O)O)OC; γGlu = O=C(O)[C@H](CCC(=O)[*:2])N[*:1]; PABC = O=C(OCc1ccc(N[*:1])cc1)[*:2]; X4 = C[C@@H](N*)[C@@H](O)c1ccccc1; X1 = O=C(C1CCC(CN[*:1])CC1)[*:2]; Cit = NC(=O)NCCC[C@H](N)C(=O)O; NMeV = CN[C@H](C(=O)O)C(C)C; CO = O=C([*:1])[*:2]; Ahx = NCCCCCC(=O)O

How the values were obtained:
metastatic PC3pip model = assay: Metastatic PC3pip survival study (intracardiac GFP-PC3pip); type: in vivo, mice; details: dose not stated
Procedure: Male athymic nude mice were injected into the left ventricle of the heart with 1×10^5 GFP labeled PC3pip cells to generate bone metastasis. One week later mice received 160 nmol/kg PSMA-1-VcMMAE-Cy5.5 or PBS every 4 days with a total of 5 doses and the progression of disease was monitored by GFP imaging. Five mice were used in each group.

orthotopic PC3pip tumors = assay: Orthotopic PC3pip tumor survival study; type: in vivo, mice
Procedure: Surgical orthotopic tumor implantation was performed as previously reported. Tumor growth/size was monitored using Siemens Acuson […] ultrasound scanner. When the tumors were at the appropriate size (5 mm as measured by ultrasound, approximately 2 weeks) animals were given PSMA-1-VcMMAE, PSMA-1-VcMMAE-Cy5.5, or PBS every four days with a total of 5 doses. Tumors were monitored every other day by ultrasound. Each group had five mice.

PC3pip cells = assay: In vitro cytotoxicity assay (CCK-8, 72 h), PSMA-positive cells; type: cell-based
Procedure: (§1) Cells (1,000/well) were seeded in 96-well culture plates the day before treatment. Cells were incubated with various concentrations of drugs for 72 hours and cell viability evaluated by CCK-8 (Dojindo). The concentration required to reach 50% of cell proliferation was determined (IC50) by GraphPad Prism 3.0.

[1] = as above; type: cell-based; details: 72 hours
Procedure: as §1

PC3flu cells = assay: In vitro cytotoxicity assay (CCK-8, 72 h), PSMA-negative cells; type: cell-based; details: relative to PSMA-1-VcMMAE-Cy5.5
Procedure: as §1

[2] = as above; type: cell-based; details: 72 hours, CCK-8; read-out: IC50, cytotoxicity to PC3flu cells
Procedure: as §1

[3] = tested on: heterotopic PC3pip tumors; assay: Heterotopic PC3pip tumor survival / antitumor study; type: in vivo
Text: Male athymic nude mice were implanted subcutaneously with 1×10^6 of PC3pip cells under the right dorsum of the mice. When tumor size reached approximately 100 mm^3 (tumor volume=Length×width^2/2), mice received drugs through tail vein injection. […] Animals were weighed and tumor size measured every other day for 90 days. Cures were defined as no tumor present at end of the 90-day study. When tumors became too large or animals were moribund they were euthanized. Five mice were used in each group.

[4] = Maximum tolerated dose (single i.v. dose); type: in vivo, mice
Text: Mice were monitored daily for 14 days.

[5] = 3820 nmol/kg every 4 days, 5 doses

CC[C@H](C)[C@@H]([C@@H](CC(=O)N1CCC[C@H]1[C@H](OC)[C@@H](C)C(=O)N[C@H](C)[C@@H](O)c1ccccc1)OC)N(C)C(=O)[C@@H](NC(=O)[C@H](C(C)C)N(C)C(=O)OCc1ccc(NC(=O)[C@H](CCCNC(N)=O)NC(=O)[C@@H](NC(=O)CCCCCN2C(=O)CC(SC[C@H](NC(=O)[C@H](CCC(=O)O)NC(=O)[C@H](CCC(=O)O)NC(=O)[C@H](CCC(=O)O)NC(=O)CCCCCNC(=O)C3CCC(CNC(=O)CC[C@H](NC(=O)N[C@@H](CCC(=O)O)C(=O)O)C(=O)O)CC3)C(=O)NCCCCCC(=O)N[C@@H](CCCCN)C(N)=O)C2=O)C(C)C)cc1)C(C)C (stereo partly shown) [PSMA-1-VcMMAE] (I: {Glu-CO-γGlu}-[X1][Ahx]EEEC[Ahx]K-NH2 / II: V[Cit][PABC][NMeV]V[Dil][Dolaproine]-X4; linker I:6-II:N via Hexanoyl(6-succinimido-3yl); C-terminus assumed)
survival and body weight (metastatic PC3pip model): prolong animal survival time with no body weight loss
tumor free mice (orthotopic PC3pip tumors; 3860 nmol/kg, five mice per group): 1 mouse
tumor growth and survival (orthotopic PC3pip tumors; every four days, 5 doses, significant at 1910 and 3860 nmol/kg): Inhibition of tumor growth and extension of animal survival time
potency to kill PC3pip cells in the presence of PSMA-1 ligand (PC3pip cells; 10 μM of PSMA-1): reduced to the same potency to kill PC3flu cells
ratio of IC50's between PC3pip and PC3flu cells (PC3pip cells; 72 hours): 48.2
effect of protease inhibitor E64 on cell killing potency (PC3pip cells; co-incubation with 50 μM E64): susceptible to E64 protease inhibition
increase of IC50 against PC3pip cells on removal of the Cy5.5 moiety (PC3pip cells; relative to PSMA-1-VcMMAE-Cy5.5): 6.2 fold
IC50 ([1]; CCK-8, read-out: IC50, cytotoxicity to PC3pip cells): 4.64 nM
selectivity ratio ([1]; PC3flu IC50 over PC3pip IC50, read-out: selectivity, differential cytotoxicity PC3pip vs PC3flu cells): 48
increase of IC50 against PC3flu cells on removal of the Cy5.5 moiety (PC3flu cells): 11.1 fold
IC50 [2]: 222 nM
inhibition of PC3pip tumor growth compared with PC3flu tumor growth ([3]; 955 nmol/kg): significantly more effective
animal survival [3, 5]: all 5 mice survived the 90-day experimental time
cure (tumor free at end of 90-day study) [3, 5]: 60%
tumor growth when given every 7 days ([3]; every 7 days, model not stated): greatly inhibited tumor growth
lowest dose effectively inhibiting tumor growth ([3]; mouse, in vivo): 191 nmol/kg
body weight loss ([3]; up to highest dose tested, 3820 nmol/kg): No body weight loss
MTD ([4]; mouse, in vivo, iv, single dose i.v., tumor-free athymic nude mice, 14 days): 7.64 µmol/kg
MTD relative to MMAE ([4]; single dose): more than 10 fold
